Reference: article PMC8765781, “A platform of assays for the discovery of anti-Zika small-molecules with activity in a 3D-bioprinted outer-blood-retina model” (PLoS ONE, 2022)
Like-named read-outs stand apart in the source and are kept apart here.

Columns and labels:
[1] = system: ZIKV-RLuc (Cambodian strain FSS13025); experiment: microbe, parasite or virus in culture; format: cell-based, Zika virus
[2] = Zika virus, Vero, read-out: Log AC50 (M) (converted)

| SMILES | CC-v2 (curve class classification v2 of the dose response curve) [1] | Efficacy (difference between neutral response and maximum compound response) [1] | Max Resp (difference between neutral response and compound response for highest compound concentration) [1] | AC50 ([1]; Zika virus, Vero) [M] | AC50 [1, 2] [M] | AC50 (Vero cells) [µM] | Log AC50 (M) (Vero cells) | AC50 [1] [M] | Log AC50 (M) [1] | Curve class [1] | Efficacy [1] | Emax ([1]; Zika virus, Vero, read-out: Max response) [%] | Efficacy (difference between neutral response and maximum compound response) (Vero cells) | Max Resp (difference between neutral response and compound response for highest compound concentration) (Vero cells) |
| --- | --- | --- | --- | --- | --- | --- | --- | --- | --- | --- | --- | --- | --- | --- |
| CC(=O)O[C@H]1C(=O)[C@@]2(C)C([C@H](OC(=O)c3ccccc3)[C@]3(O)C[C@H](OC(=O)[C@H](O)[C@@H](NC(=O)c4ccccc4)c4ccccc4)C(C)=C1C3(C)C)[C@]1(OC(C)=O)CO[C@@H]1C[C@@H]2O (stereo partly shown) [NCGC00024995-10] | -2.2 | -75.217 | -63.948 | 2.08e-05 | 2.08e-05 | 20.8 | -4.6827 | – | – | – | – | – | – | – |
| COC(=O)[C@]12CCC(C)(C)C[C@H]1[C@H]1C(=O)C=C3[C@@]4(C)C=C(C#N)C(=O)C(C)(C)[C@@H]4CC[C@@]3(C)[C@]1(C)CC2 [NCGC00186460-02] | -1.1 | -99.409 | -99.593 | 3.69e-07 | 3.69e-07 | 0.369 | -6.4327 | – | – | – | – | – | – | – |
| CC(C)c1cc(-c2n[nH]c(=O)n2-c2ccc3c(ccn3C)c2)c(O)cc1O [NCGC00346678-04] | -2.2 | -65.758 | -62.389 | – | – | 9.28 | -5.0327 | 9.28e-06 | -5.0327 | – | – | – | – | – |
| CNC(=O)c1cccc(-c2ccc3c(N4CCOC[C@@H]4C)nc(N4CCOC[C@@H]4C)nc3n2)c1 [NCGC00346698-01] | -2.2 | -76.837 | -71.465 | 1.65e-05 | 1.65e-05 | 16.5 | -4.7827 | – | – | – | – | – | – | – |
| CC1OC(OC2C(OC3C(OC4CCC5(C)C(CCC6(C)C5CC=C5C7CC(C)(C)CCC7(C(=O)O)C(O)CC56C)C4(C)C)OC(C(=O)O)C(O)C3O)OC(CO)C(OC3OCC(O)C(OC4OC(CO)C(O)C4O)C3O)C2OC2OC(C)C(O)C(O)C2O)C(O)C(O)C1O (stereo not shown) [NCGC00380107-01] | -2.1 | -79.638 | -81.884 | 1.28e-05 | 1.28e-05 | 12.8 | -4.894 | – | – | – | – | – | – | – |
| CC1(C)CCC(C)(C)c2cc(NC(=O)c3ccc(C(=O)O)cc3)ccc21 [NCGC00181111-02] | -2.1 | -104.922 | -87.275 | – | – | 36.9 | -4.4327 | 3.69e-05 | -4.4327 | – | – | – | – | – |
| CC(=O)O[C@H]1C(=O)[C@@]2(C)[C@H]([C@H](OC(=O)c3ccccc3)[C@]3(O)C[C@H](OC(=O)[C@H](O)[C@@H](NC(=O)c4ccccc4)c4ccccc4)C(C)=C1C3(C)C)[C@]1(OC(C)=O)CO[C@@H]1C[C@@H]2O [NCGC00164367-10] | -1.2 | -44.84 | -48.24 | 1.39e-07 | 1.39e-07 | 0.139 | -6.8582 | – | – | – | – | – | – | – |
| Cc1ccc(NC(=O)c2ccc(CN3CC[C@H](N(C)C)C3)c(C(F)(F)F)c2)cc1Nc1ncc(-c2cncnc2)cn1 [NCGC00346514-01] | -2.1 | -111.251 | -100.269 | 1.65e-05 | 1.65e-05 | 16.5 | -4.7827 | – | – | – | – | – | – | – |
| C[C@@H]1CC[C@@]2(OC1)O[C@H]1C[C@H]3[C@@H]4CC=C5C[C@@H](O[C@@H]6O[C@H](CO)[C@@H](O[C@@H]7O[C@@H](C)[C@H](O)[C@@H](O)[C@H]7O)[C@H](O)[C@H]6O[C@@H]6O[C@@H](C)[C@H](O)[C@@H](O)[C@H]6O)CC[C@]5(C)[C@H]4CC[C@]3(C)[C@H]1[C@@H]2C [NCGC00346600-01] | -1.1 | -96.499 | -99.01 | 3.29e-06 | 3.29e-06 | 3.29 | -5.4827 | – | – | – | – | – | – | – |
| CN1CCCC(CC2c3ccccc3Sc3ccccc32)C1.Cl (stereo not shown) [NCGC00273481-01] | -3 | -90.373 | -72.236 | 3.69e-05 | 3.69e-05 | 36.9 | -4.4327 | – | – | – | – | – | – | – |
| CCN(CC)Cc1ccc2cc(COC(=O)Nc3ccc(C(=O)NO)cc3)ccc2c1 [NCGC00346743-01] | -1.2 | -68.967 | -98.985 | 2.61e-06 | 2.61e-06 | 2.61 | -5.5827 | – | – | – | – | – | – | – |
| O=C(/C=C/c1ccccc1)CC(O)CCc1ccccc1 (stereo not shown) [NCGC00180705-02] | -2.2 | -46.506 | -73.055 | 2.33e-05 | 2.33e-05 | 23.3 | -4.6327 | – | – | – | – | – | – | – |
| CCNC(=O)c1cc2c(-c3cc(OCCN4CCCC4)c(Cl)cc3Cl)nc(N)nc2s1 [NCGC00247879-01] | – | – | – | – | – | – | – | – | – | 4 | -14.131 | 2.04 | -14.131 | 2.045 |
| O=C(Nc1ccc([N+](=O)[O-])cc1Cl)c1cc(Cl)ccc1O [NCGC00015735-11] | -1.1 | -106.368 | -100.429 | – | – | 0.362 | -6.4408 | 3.62e-07 | -6.4408 | – | – | – | – | – |
| CNCCC(Oc1ccc(C(F)(F)F)cc1)c1ccccc1 (stereo not shown) [NCGC00015428-15] | -2.2 | -78.657 | -76.003 | 1.65e-05 | 1.65e-05 | 16.5 | -4.7827 | – | – | – | – | – | – | – |
| C[C@@H]1O[C@@H](O[C@H]2[C@H](OC(=O)[C@]34CCC(C)(C)C[C@H]3C3=CCC5[C@@]6(C)C[C@H](O)[C@H](O[C@@H]7O[C@H](C(=O)O)[C@@H](O)[C@H](O)[C@H]7O)[C@@](C)(CO)C6[C@H](O)C[C@@]5(C)[C@]3(C)CC4)OC[C@H](O)[C@@H]2O)[C@H](O)[C@H](O)[C@H]1O[C@@H]1OC[C@@H](O)[C@H](O[C@@H]2OC[C@](O)(CO)[C@H]2O)[C@H]1O (stereo partly shown) [NCGC00380219-01] | -2.1 | -96.8 | -99.643 | 1.16e-05 | 1.16e-05 | 11.6 | -4.9345 | – | – | – | – | – | – | – |
| CCCCc1oc2ccccc2c1C(=O)c1cc(I)c(OCCN(CC)CC)c(I)c1 [NCGC00015096-17] | -2.1 | -100.133 | -98.715 | 1.85e-05 | 1.85e-05 | 18.5 | -4.7327 | – | – | – | – | – | – | – |
| Cc1nc2cnc3ccc(C#Cc4cccnc4)cc3c2n1-c1ccc(C(C)(C)C#N)cc1 [NCGC00263088-01] | -1.1 | -103.241 | -92.032 | 5.85e-06 | 5.85e-06 | 5.85 | -5.2327 | – | – | – | – | – | – | – |
